Data: publication PMC8457749, “Design, Synthesis, and Anticancer Activity Evaluation of Hybrids of Azoles and Barbituric Acids” (Iranian Journal of Pharmaceutical Research : IJPR, 2021)
Read-outs that look alike come from different tables or passages of the source.

Assays:
BEL-7402 cells = assay: MTT antiproliferative assay, BEL-7402; type: cell-based, human; conditions: Homo sapiens; for inhibition at 100 µM: read-out: Growth Inhibition at 100 μM (%) BEL-7402; for IC50: read-out: IC50 BEL-7402
Description: (§1) The antiproliferative activity of the target compounds against the panel of three different human cancer cell lines, liver (BEL-7402), colorectal (HCT-116), and breast (MCF-7) cell lines was evaluated using a standard MTT-based colorimetric assay. All cell lines were obtained from the Key Laboratory of Natural Resources and Functional Molecules of the Changbai Mountain (Yanbian University) and maintained in Dulbecco’s modified Eagle’s medium (DMEM) and RPMI Media 1640 (RPMI1640), supplemented with 10% foetal bovine serum (FBS) at 37 °C in a humidified atmosphere containing 5% CO2.
(§2) The cells were plated in 96-well plates at appropriate densities to ensure exponential growth throughout the experimental period (9 × 10^3 cells per well) and then allowed to adhere for 24 h. the cells were then treated for 48 h with each compound. After 48 h of incubation, 10 μL of MTT solution was added to each well to a final concentration of 2 mg/mL. the plates were then incubated for a further 4 h. After incubation, the MTT solution was removed and 150 μL of DMSO was added to each well for coloration. The plates were shaken vigorously for 10 min at room temperature to ensure complete solubilisation. The optometric density (OD) was read on a microplate reader (EL × 800, BioTek, Highland Park, Winooski, VT, USA) at 492 nm, and the data were subsequently analysed. The percentage of cell growth inhibition was calculated from the following Equation:
(§3) Inhibitory rate (%) = [1 − (ODtreated − ODblank)/(ODcontrol − ODblank)] × 100%
(§4) To obtain the antiproliferative activity of compounds 3a-3s and 4a-4d, the compounds were selected in the same way with four serial concentrations (1, 10, 50 and 100 μM) of those compounds. The optometric density (OD) reading was then used to calculate the IC50.

MCF-7 cells = assay: MTT antiproliferative assay, MCF-7; type: cell-based, human; conditions: Homo sapiens, MCF7, 48 h; for inhibition at 100 µM: read-out: Growth Inhibition at 100 μM (%) MCF-7; for IC50: read-out: IC50 MCF-7
Description: as §1, §2, §3, §4

HCT-116 cells = assay: MTT antiproliferative assay, HCT-116; type: cell-based, human; conditions: Homo sapiens; for inhibition at 100 µM: read-out: Growth Inhibition at 100 μM (%) HCT-116; for IC50: read-out: IC50 HCT-116
Description: as §1, §2, §3, §4

Structure (SMILES): O=C1NC(=O)C(=Cc2cn(-c3ccccc3Br)nn2)C(=O)N1 [Compound 3j, 5-((1-(2-bromophenyl)-1H-1,2,3-triazol-4-yl)methylene)pyrimidine-2,4,6(1H,3H,5H)-trione]
- melting point: 250 °C
- inhibition at 100 µM (BEL-7402 cells; Bel-7402, 48 h): 36.8 ± 2.1%
- inhibition at 100 µM (MCF-7 cells): 42.7 ± 2.6%
- inhibition at 100 µM (HCT-116 cells; HCT-116, 48 h): 46.3 ± 3.4%

Structure (SMILES): O=C1NC(=O)C(=Cc2cn(-c3ccccc3Cl)nn2)C(=O)N1 [Compound 3e, 5-((1-(2-chlorophenyl)-1H-1,2,3-triazol-4-yl)methylene)pyrimidine-2,4,6(1H,3H,5H)-trione]
- melting point: 250 °C
- inhibition at 100 µM (BEL-7402 cells; Bel-7402, 48 h): 39.6 ± 4.1%
- inhibition at 100 µM (MCF-7 cells): 19.8 ± 1.5%
- inhibition at 100 µM (HCT-116 cells; HCT-116, 48 h): 14.8 ± 0.9%

Structure (SMILES): COc1cccc(-n2cc(C=C3C(=O)NC(=O)NC3=O)nn2)c1 [Compound 3n, 5-((1-(3-methoxyphenyl)-1H-1,2,3-triazol-4-yl)methylene)pyrimidine-2,4,6(1H,3H,5H)-trione]
- melting point: 250 °C
- inhibition at 100 µM (BEL-7402 cells; Bel-7402, 48 h): 36.7 ± 19%
- IC50 (BEL-7402 cells; Bel-7402, 48 h): > 100 µM
- inhibition at 100 µM (MCF-7 cells): 23.3 ± 3.5%
- IC50 (MCF-7 cells): > 100 µM
- inhibition at 100 µM (HCT-116 cells; HCT-116, 48 h): 67.1 ± 5.6%
- IC50 (HCT-116 cells; HCT-116, 48 h): 30.7 ± 2.1 µM

Structure (SMILES): Cc1ccc(-n2nc(C)c(C=C3C(=O)NC(=O)NC3=O)c2C)cc1 [Compound 4d, 5-((3,5-dimethyl-1-p-tolyl-1H-pyrazol-4-yl)methylene)pyrimidine-2,4,6(1H,3H,5H)-trione]
- melting point: 250 °C
- inhibition at 100 µM (BEL-7402 cells; Bel-7402, 48 h): 38.1 ± 1.3%
- inhibition at 100 µM (MCF-7 cells): < 5%
- inhibition at 100 µM (HCT-116 cells; HCT-116, 48 h): 28.4 ± 3%

Structure (SMILES): Cc1nn(-c2ccccc2)c(C)c1C=C1C(=O)NC(=O)NC1=O [Compound 4a, 5-((3,5-dimethyl-1-phenyl-1H-pyrazol-4-yl)methylene)pyrimidine-2,4,6(1H,3H,5H)-trione]
- melting point: 250 °C
- inhibition at 100 µM (BEL-7402 cells; Bel-7402, 48 h): 38.7 ± 1%
- inhibition at 100 µM (MCF-7 cells): < 5%
- inhibition at 100 µM (HCT-116 cells; HCT-116, 48 h): 30.9 ± 3.1%

Structure (SMILES): O=C1CC(=O)NC(=O)N1 [Barbituric acid]
- inhibition at 100 µM (BEL-7402 cells; Bel-7402, 48 h): 11.7 ± 1%
- IC50 (BEL-7402 cells; Bel-7402, 48 h): > 100 µM
- inhibition at 100 µM (MCF-7 cells): < 5%
- IC50 (MCF-7 cells): > 100 µM
- inhibition at 100 µM (HCT-116 cells; HCT-116, 48 h): 14.3 ± 2.2%
- IC50 (HCT-116 cells; HCT-116, 48 h): > 100 µM

Structure (SMILES): O=C1NC(=O)C(=Cc2cn(-c3ccccc3F)nn2)C(=O)N1 [Compound 3b, 5-((1-(2-fluorophenyl)-1H-1,2,3-triazol-4-yl)methylene)pyrimidine-2,4,6(1H,3H,5H)-trione]
- melting point: 250 °C
- inhibition at 100 µM (BEL-7402 cells; Bel-7402, 48 h): 34.1 ± 4.3%
- IC50 (BEL-7402 cells; Bel-7402, 48 h): > 100 µM
- inhibition at 100 µM (MCF-7 cells): 27.5 ± 1.6%
- IC50 (MCF-7 cells): > 100 µM
- inhibition at 100 µM (HCT-116 cells; HCT-116, 48 h): 67.6 ± 3.8%
- IC50 (HCT-116 cells; HCT-116, 48 h): 78.2 ± 2.34 µM

Structure (SMILES): O=C1NC(=O)C(=Cc2cn(Cc3ccccc3)c3ccccc23)C(=O)N1 [A, 5-((1-benzyl-1H-indol-3-yl)methylene)pyrimidine-2,4,6 (1H,3H,5H)-trione, reference compound]
- inhibition at 100 µM (BEL-7402 cells; Bel-7402, 48 h): 19.6 ± 2.1%
- inhibition at 100 µM (MCF-7 cells): 11.8 ± 1%
- inhibition at 100 µM (HCT-116 cells; HCT-116, 48 h): 26.2 ± 1.8%

Structure (SMILES): Cc1nn(-c2cccc(Cl)c2)c(C)c1C=C1C(=O)NC(=O)NC1=O [Compound 4c, 5-((1-(3-chlorophenyl)-3,5-dimethyl-1H-pyrazol-4-yl)methylene)pyrimidine-2,4,6(1H,3H,5H)-trione]
- melting point: 250 °C
- inhibition at 100 µM (BEL-7402 cells; Bel-7402, 48 h): 64 ± 2.1%
- IC50 (BEL-7402 cells; Bel-7402, 48 h): 48.2 ± 0.78 µM
- inhibition at 100 µM (MCF-7 cells): 15.5 ± 1.1%
- IC50 (MCF-7 cells): > 100 µM
- inhibition at 100 µM (HCT-116 cells; HCT-116, 48 h): 58.7 ± 5.2%
- IC50 (HCT-116 cells; HCT-116, 48 h): 47.5 ± 3.21 µM

Structure (SMILES): O=C1NC(=O)C(=Cc2cn(-c3ccc(Br)cc3)nn2)C(=O)N1 [Compound 3l, 5-((1-(4-bromophenyl)-1H-1,2,3-triazol-4-yl)methylene)pyrimidine-2,4,6(1H,3H,5H)-trione]
- melting point: 250 °C
- inhibition at 100 µM (BEL-7402 cells; Bel-7402, 48 h): 44.8 ± 3.8%
- inhibition at 100 µM (MCF-7 cells): < 5%
- inhibition at 100 µM (HCT-116 cells; HCT-116, 48 h): 49.8 ± 3.8%

Structure (SMILES): O=c1[nH]cc(F)c(=O)[nH]1 [Compound 5-FU, 5-fluorouracil, reference compound]
- IC50 (BEL-7402 cells; Bel-7402, 48 h, MTT): 21.3 ± 0.56 µM
- IC50 (HCT-116 cells; HCT-116, 48 h, MTT): 24.8 ± 0.78 µM
